pIC50: −log10 of the molar value. Values after ≈ are worked out from the molar mass of the structure shown. Like-named read-outs stand apart in the source and are kept apart here.
Tests used:
Solubility pH 7.4 = details: pH 7.4, aqueous buffer
[1] = Microsome Stability (15 min), rat; format: in vitro ADME; details: microsomes, Phase I (NADPH), read-out: Microsome Stability (15 min) T ½ Phase I rat
[2] = PAMPA permeability pH 7.4
PI3K alpha = PI3K alpha (Homo sapiens, UniProt P42336); experiment: PI3K-alpha Fluorescence Polarization Assay; format: biochemical
[3] = Microsome Stability (15 min), nude mouse; format: in vitro ADME; details: microsomes, Phase I (NADPH), read-out: Microsome Stability (15 min) T ½ Phase I nude mouse
[4] = Microsome Stability (15 min), human; format: in vitro ADME; details: microsomes, Phase I (NADPH), read-out: Microsome Stability (15 min) T ½ Phase I human
[5] = Buffer Stability (37° C.)
[6] = Plasma Stability (37° C.), rat

Sequence of PI3K alpha (P42336 whole entry, species assumed): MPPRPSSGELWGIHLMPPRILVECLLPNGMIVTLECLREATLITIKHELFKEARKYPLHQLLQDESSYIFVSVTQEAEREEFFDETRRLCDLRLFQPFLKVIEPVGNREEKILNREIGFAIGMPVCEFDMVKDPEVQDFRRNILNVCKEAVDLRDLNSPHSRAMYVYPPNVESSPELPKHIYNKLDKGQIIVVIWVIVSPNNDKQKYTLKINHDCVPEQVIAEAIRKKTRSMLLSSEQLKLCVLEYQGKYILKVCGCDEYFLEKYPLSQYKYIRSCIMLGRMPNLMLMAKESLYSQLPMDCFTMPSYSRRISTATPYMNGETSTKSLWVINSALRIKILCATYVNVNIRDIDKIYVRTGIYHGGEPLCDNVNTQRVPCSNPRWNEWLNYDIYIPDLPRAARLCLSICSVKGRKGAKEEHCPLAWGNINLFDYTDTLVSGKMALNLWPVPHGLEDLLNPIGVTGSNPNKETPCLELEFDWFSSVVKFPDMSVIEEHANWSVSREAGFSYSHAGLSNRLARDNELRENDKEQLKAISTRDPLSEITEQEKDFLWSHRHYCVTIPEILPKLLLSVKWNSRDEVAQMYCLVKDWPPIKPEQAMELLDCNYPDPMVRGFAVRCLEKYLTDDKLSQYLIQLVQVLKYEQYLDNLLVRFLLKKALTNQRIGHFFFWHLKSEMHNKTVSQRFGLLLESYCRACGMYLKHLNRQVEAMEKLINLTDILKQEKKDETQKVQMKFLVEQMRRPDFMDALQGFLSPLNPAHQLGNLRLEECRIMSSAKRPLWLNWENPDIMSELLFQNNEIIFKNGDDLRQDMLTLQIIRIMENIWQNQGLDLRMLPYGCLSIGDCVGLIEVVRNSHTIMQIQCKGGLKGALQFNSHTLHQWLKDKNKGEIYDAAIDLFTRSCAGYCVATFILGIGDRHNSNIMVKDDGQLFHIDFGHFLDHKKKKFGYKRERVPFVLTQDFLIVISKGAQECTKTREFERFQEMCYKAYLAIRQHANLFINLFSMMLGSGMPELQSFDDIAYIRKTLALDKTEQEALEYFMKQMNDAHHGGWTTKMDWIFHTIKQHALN
Sequence of PI3K alpha (P27986 whole entry partner, species assumed): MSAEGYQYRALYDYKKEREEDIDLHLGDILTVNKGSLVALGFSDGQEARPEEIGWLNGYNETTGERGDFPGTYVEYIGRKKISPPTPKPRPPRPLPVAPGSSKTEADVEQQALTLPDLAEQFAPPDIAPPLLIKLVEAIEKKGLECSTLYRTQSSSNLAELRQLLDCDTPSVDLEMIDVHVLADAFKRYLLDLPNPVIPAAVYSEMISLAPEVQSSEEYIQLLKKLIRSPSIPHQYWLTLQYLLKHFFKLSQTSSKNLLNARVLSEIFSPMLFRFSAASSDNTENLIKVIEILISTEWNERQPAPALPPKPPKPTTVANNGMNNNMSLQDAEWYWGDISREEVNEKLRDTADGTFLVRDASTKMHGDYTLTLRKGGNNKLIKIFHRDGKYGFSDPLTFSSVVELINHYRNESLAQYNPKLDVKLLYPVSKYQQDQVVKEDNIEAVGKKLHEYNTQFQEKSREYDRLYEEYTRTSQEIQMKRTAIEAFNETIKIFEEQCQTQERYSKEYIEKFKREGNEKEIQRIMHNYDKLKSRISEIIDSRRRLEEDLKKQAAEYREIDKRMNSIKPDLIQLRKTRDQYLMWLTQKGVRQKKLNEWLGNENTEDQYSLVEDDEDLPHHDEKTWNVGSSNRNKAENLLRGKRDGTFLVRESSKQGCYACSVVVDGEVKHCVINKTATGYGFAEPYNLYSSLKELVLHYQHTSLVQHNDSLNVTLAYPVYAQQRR

solubility (Solubility pH 7.4) [µg/mL]	half-life [1] [min]	PAMPA Pe [2]	pIC50 (PI3K alpha; read-out: PI3K alpha Mean IC50)	half-life ([3]; nude, mouse) [min]	half-life [4] [min]	Buffer Stability (37° C.) % Remaining (at 16-23 hours) SGF [5] [%]	Buffer Stability (37° C.) % Remaining (at 16-23 hours) SIF [5] [%]	Buffer Stability (37° C.) % Remaining (at 16-23 hours) pH 1 [5] [%]	Buffer Stability (37° C.) % Remaining (at 16-23 hours) pH 4.5 [5] [%]	Buffer Stability (37° C.) % Remaining (at 16-23 hours) pH 6.6 [5] [%]	Buffer Stability (37° C.) % Remaining (at 16-23 hours) pH 7.4 [5] [%]	Buffer Stability (37° C.) % Remaining (at 16-23 hours) pH 9 [5] [%]	Plasma Stability (37° C.) % Remaining (3-3.5 hours) rat [6] [%]	SMILES	pIC50 (PI3K alpha)	half-life [3] [min]
53 (≈ 135 µM)	12	0 10e−6 cm/s	–	–	–	–	–	–	–	–	–	–	–	COc1ccc2c(c1)c(/C=C1\Oc3cc(O)ccc3C1=O)cn2CCCN(C)C [(2Z)-2-({1-[3-(dimethylamino)propyl]-5-methoxy-1H-indol-3-yl}methylene)-6-hydroxy-1-benzofuran-3(2H)-one]	–	–
43 (≈ 82 µM)	–	0.19 10e−6 cm/s	6.50	–	–	–	–	–	–	–	–	–	–	COC(=O)Oc1cc(OC(=O)OC)c2c(c1)O/C(=C\c1cn(CCCN(C)C)c3ccc(OC)cc13)C2=O [Example 13, (2Z)-2-({1-[3-(dimethylamino)propyl]-5-methoxy-1H-indol-3-yl}methylene)-3-oxo-2,3-dihydro-1-benzofuran-4,6-diyl dimethyl biscarbonate]	–	–
4 (≈ 8.2 µM)	5	0 10e−6 cm/s	6.80	> 30	4	96	0	95	93	95	32	0	2	COc1ccc2[nH]c(-c3ccccc3)c(/C=C3\Oc4cc(OC(=O)c5ccccc5)ccc4C3=O)c2c1 [Example 17, (2Z)-2-[(5-methoxy-2-phenyl-1H-indol-3-yl)methylene]-3-oxo-2,3-dihydro-1-benzofuran-6-yl benzoate]	–	–
1 (≈ 1.56 µM)	8	0 10e−6 cm/s	8.00	–	6	0	0	0	0	0	0	0	0	COc1ccc2[nH]c(-c3ccccc3)c(/C=C3\Oc4cc(OC(=O)Oc5ccccc5)cc(OC(=O)Oc5ccccc5)c4C3=O)c2c1 [Example 23, (2Z)-2-[(5-methoxy-2-phenyl-1H-indol-3-yl)methylene]-3-oxo-2,3-dihydro-1-benzofuran-4,6-diyl diphenyl biscarbonate]	–	–

More lines, now with the values behind:

SMILES	solubility (Solubility pH 7.4) [µg/mL]	half-life [1] [min]	PAMPA Pe [2]	pIC50 (PI3K alpha; read-out: PI3K alpha Mean IC50)	half-life ([3]; nude, mouse) [min]	half-life [4] [min]	Buffer Stability (37° C.) % Remaining (at 16-23 hours) SGF [5] [%]	Buffer Stability (37° C.) % Remaining (at 16-23 hours) SIF [5] [%]	Buffer Stability (37° C.) % Remaining (at 16-23 hours) pH 1 [5] [%]	Buffer Stability (37° C.) % Remaining (at 16-23 hours) pH 4.5 [5] [%]	Buffer Stability (37° C.) % Remaining (at 16-23 hours) pH 6.6 [5] [%]	Buffer Stability (37° C.) % Remaining (at 16-23 hours) pH 7.4 [5] [%]	Buffer Stability (37° C.) % Remaining (at 16-23 hours) pH 9 [5] [%]	Plasma Stability (37° C.) % Remaining (3-3.5 hours) rat [6] [%]	pIC50 (PI3K alpha)	half-life [3] [min]
COc1ccc2c(c1)c(/C=C1\Oc3cc(OC(=O)C(C)(C)C)cc(OC(=O)C(C)(C)C)c3C1=O)cn2CCCN(C)C [Example 14, (2Z)-2-({1-[3-(dimethylamino)propyl]-5-methoxy-1H-indol-3-yl}methylene)-3-oxo-2,3-dihydro-1-benzofuran-4,6-diyl bis(2,2-dimethylpropanoate)]	1 (≈ 1.73 µM)	3	0 10e−6 cm/s	–	2	21	94	0	89	98	79	20	0	–	–	–
COc1ccc2c(c1)c(/C=C1\Oc3cc(OC(C)=O)cc(OC(C)=O)c3C1=O)cn2CCCN(C)C [Example 15, (2Z)-2-({1-[3-(dimethylamino)propyl]-5-methoxy-1H-indol-3-yl}methylene)-3-oxo-2,3-dihydro-1-benzofuran-4,6-diyl diacetate]	49	–	0.24 10e−6 cm/s	7.09	–	–	–	–	–	–	–	–	–	–	–	–
COc1ccc2[nH]c(-c3ccccc3)c(/C=C3\Oc4cc(OC(=O)N(C)C)ccc4C3=O)c2c1 [Example 18, (2Z)-2-[(5-methoxy-2-phenyl-1H-indol-3-yl)methylene]-3-oxo-2,3-dihydro-1-benzofuran-6-yl dimethylcarbamate]	–	28	Undetected	–	–	13	100	101	99	100	100	100	99	0	5.20	> 30
COc1ccc2[nH]c(-c3ccccc3)c(/C=C3\Oc4cc(OC(=O)Oc5ccccc5)ccc4C3=O)c2c1 [Example 19, (2Z)-2-[(5-methoxy-2-phenyl-1H-indol-3-yl)methylene]-3-oxo-2,3-dihydro-1-benzofuran-6-yl phenyl carbonate]	–	> 30	0 10e−6 cm/s	6.74	> 30	28	106	35	104	74	60	54	0	10	–	–
COc1ccc2[nH]c(-c3ccccc3)c(/C=C3\Oc4cc(OC(=O)N(c5ccccc5)c5ccccc5)ccc4C3=O)c2c1 [Example 20, (2Z)-2-[(5-methoxy-2-phenyl-1H-indol-3-yl)methylene]-3-oxo-2,3-dihydro-1-benzofuran-6-yl diphenylcarbamate]	–	> 30	Undetected	< 5.00	–	> 30	100	100	100	100	100	100	95	91	–	> 30
COc1ccc2c(c1)c(/C=C1\Oc3cc(OC(=O)N(c4ccccc4)c4ccccc4)cc(OC(=O)N(c4ccccc4)c4ccccc4)c3C1=O)cn2CCCN(C)C [Example 21, (2Z)-2-({1-[3-(dimethylamino)propyl]-5-methoxy-1H-indol-3-yl}methylene)-3-oxo-2,3-dihydro-1-benzofuran-4,6-diyl bis(diphenylcarbamate)]	–	–	0 10e−6 cm/s	–	–	–	99	45	118	103	91	98	87	107	< 5.00	> 30
COC(=O)Oc1cc(OC(=O)OC)c2c(c1)O/C(=C\c1c(-c3ccccc3)[nH]c3ccc(OC)cc13)C2=O [Example 22, (2Z)-2-[(5-methoxy-2-phenyl-1H-indol-3-yl)methylene]-3-oxo-2,3-dihydro-1-benzofuran-4,6-diyl dimethyl biscarbonate]	–	–	0 10e−6 cm/s	7.89	4	3	87	0	80	37	42	0	0	0	–	–
COc1ccc2c(c1)c(/C=C1\Oc3cc(OC(=O)N(c4ccccc4)c4ccccc4)cc(OC(=O)N(c4ccccc4)c4ccccc4)c3C1=O)c(C)n2CCN1CCN(C)CC1 [Example 29, (2Z)-2-({5-methoxy-2-methyl-1-[2-(4-methylpiperazin-1-yl)ethyl]-1H-indol-3-yl}methylene)-3-oxo-2,3-dihydro-1-benzofuran-4,6-diyl bis(diphenylcarbamate)]	5 (≈ 5.85 µM)	–	0 10e−6 cm/s	–	–	–	–	–	–	–	–	–	–	–	6.00	–
CCOP(=O)(OCC)Oc1cc2c(c(OP(=O)(OCC)OCC)c1)C(=O)/C(=C/c1cn(CCCN(C)C)c3ccc(OC)cc13)O2 [Example 33, (2Z)-2-({1-[3-(dimethylamino)propyl]-5-methoxy-1H-indol-3-yl}methylene)-3-oxo-2,3-dihydro-1-benzofuran-4,6-diyl tetraethyl bis(phosphate)]	59	12	0.25 10e−6 cm/s	–	–	4	–	–	–	–	–	–	–	–	< 5.00	15
CCOC(=O)CNC(=O)Oc1cc(OC(=O)NCC(=O)OCC)c2c(c1)O/C(=C\c1cn(CCCN(C)C)c3ccc(OC)cc13)C2=O [Example 35, diethyl 2,2′-[[(2Z)-2-({1-[3-(dimethylamino)propyl]-5-methoxy-1H-indol-3-yl}methylene)-3-oxo-2,3-dihydro-1-benzofuran-4,6-diyl]bis(oxycarbonylimino)]diacetate]	51 (≈ 76.5 µM)	–	0 10e−6 cm/s	–	–	–	–	–	–	–	–	–	–	–	7.55	–
